Data: US7868026B2, “Therapeutic compounds” (Pfizer Inc., priority 2005, dated 2011)
Where two headings read alike, the source gives them in different places.

Tests used:
[1] = target: T1, CYP3A4 (Homo sapiens, UniProt P08684); assay: Determination of compound Kiapp against recombinant CYP3A4 enzyme (BFC fluorescent substrate); type: biochemical
Protocol: 1. Determination of compound Kiapp
A determination of the Kiapp of the compounds of the invention against recombinant CYP3A4 enzyme was performed as follows. The assay was performed in a 100 mM sodium phosphate buffer pH 7.0, 5 mM TCEP and containing 2% dimethylformamide (final concentration) upon addition of substrate and inhibitor. A typical reaction for the determination of Kiapp values was carried at room temperature in a solid black Costar u-bottom 96-well polypropylene plate. In each well, recombinant CYP3A4 enzyme (5.5 nM or 8 nM, final concentration depending on the commercial source of the enzyme) was pre-incubated in the presence of the inhibitor for at least 30 minutes in the assay buffer. When pre-incubation was completed (˜30 min), the reaction was initiated by adding NADPH (200 uM, final concentration), and 7-benzyloxy-4-(trifluoromethyl)-coumarin (BFC) (5 uM, final concentration). The oxidation of the coumarin substrate was recorded by a 96-well plate reader POLARstar (BMG LABTECH, Offenburg, Germany).
The initial reaction velocities were measured during the first 5 min of the reaction when the release of the fluorescent product is linear with time, in the absence and in the presence of various concentrations of inhibitors. For non-partial & partial inhibitors, the Kiapp values were determined by using the equation for tight-binding inhibitor developed by Morrison, J F (Morrison J F. Biochim Biophys Acta. 1969, 185: 269-86) and by Szedlaseck S E et al. (Szedlascek, S. E., Ostafe, V., Serban, M., and Vlad, M.O. Biochem. J. 1988, 254:311-312), respectively.
The fluorescent substrate BFC was purchased from Sigma (St Louis, Mo.). Two commercial sources of recombinant enzymes were used in this study: recombinant CYP3A4−b5 enzyme (Baculosomes®) was purchased from Invitrogen (Carlsbad, Calif.) and the recombinant CYP3A4+b5 enzyme (Supersomes®) was purchased from BD Biosciences (Woburn, Mass.).

[2] = target: T1, CYP3A4; assay: Determination of IC50 against CYP3A4 by measurement of inhibition of midazolam metabolism (human liver microsomes, 1-hydroxymidazolam by LC-MS/MS); type: biochemical; design: 0.1 mg/mL human liver microsomes; conditions: 2 μM midazolam, 0.1 mg/mL human liver microsomes
Protocol: 3. Determination of IC50 Against CYP3A4 by Measurement of Inhibition of Midazolam Metabolism
This assay was performed using a standard 96 well plate design. […] The incubation substrate mix contains 2 μM midazolam, 0.1 mg/mL human liver microsomes, 1 mM NADPH, and potassium phosphate buffer (100 mM, pH 7.4). Quantitation of metabolite peak area ratio against internal standard is determined by LC-MS/MS analysis. The production of 1-hydroxymidazolam from midazolam metabolism is determined after incubation for eight minutes by comparison to a standard curve generated for the metabolite.
Samples were analyzed in the MRM mode using a Sciex API 3000 mass spectrometer (Applied Biosystems, Foster City, Calif.) with a Paradigm MS4 binary pump (Michrom BioResources Inc., Auburn, Calif.) and a LEAP CTC PAL autosampler (LEAP Technologies, Carrboro, N.C.). A Phenomenex Synergi, 4μ, Polar-RP, 10×2.0 mm column (Phenomenex, Torrance, Calif.) was used for separation with a mobile phase composition of: 0.1% formic acid in water (A) and: 0.1% formic acid in methanol (B). The following gradient was used: […]
The sample injection volume was 10 μL and flow was split post-column with 0.4 mL/min going to the mass spectrometer. Analysis was performed using the following API 3000 mass spectrometer settings: […]

[3] = Baculo. enzyme preparation, read-out: Kiapp (BFC, Baculo.)
[4] = Super. enzyme preparation, read-out: Kiapp (BFC, Super.)

T1 sequence (P08684 whole entry): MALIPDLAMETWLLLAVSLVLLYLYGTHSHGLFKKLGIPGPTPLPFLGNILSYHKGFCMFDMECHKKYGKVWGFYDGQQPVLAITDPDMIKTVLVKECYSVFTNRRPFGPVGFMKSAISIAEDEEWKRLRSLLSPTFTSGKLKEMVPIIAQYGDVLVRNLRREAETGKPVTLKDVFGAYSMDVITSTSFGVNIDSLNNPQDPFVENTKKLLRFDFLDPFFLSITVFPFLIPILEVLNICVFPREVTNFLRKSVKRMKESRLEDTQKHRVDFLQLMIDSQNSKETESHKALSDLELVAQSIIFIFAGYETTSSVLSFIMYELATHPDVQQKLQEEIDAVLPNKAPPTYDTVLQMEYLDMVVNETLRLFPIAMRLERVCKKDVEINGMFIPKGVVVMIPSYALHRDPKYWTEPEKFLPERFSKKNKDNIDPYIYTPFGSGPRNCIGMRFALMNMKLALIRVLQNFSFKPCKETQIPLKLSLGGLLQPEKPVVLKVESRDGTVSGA

| SMILES | Ki [1, 3] [nM] | Ki [1, 4] [nM] | IC50 [2] [nM] |
| --- | --- | --- | --- |
| COc1ccccc1CNC(=O)c1ccccc1S(=O)(=O)Nc1cncc(C)c1 [Example 93, N-(2-methoxybenzyl)-2-{[(5-methylpyridin-3-yl)amino]sulfonyl}benzamide] | 166 | 14.7 | 10 |
| Cc1cncc(NS(=O)(=O)c2ccccc2C(=O)NCc2ccc3c(c2)CCO3)c1 [Example 94, N-(2,3-dihydro-1-benzofuran-5-ylmethyl)-2-{[(5-methylpyridin-3-yl)amino]sulfonyl}benzamide] | 182 | 25.7 | 16 |
| COc1cncc(NS(=O)(=O)c2ccccc2C(=O)N(Cc2nccn2C)C(C)C)c1 [Example 97, N-isopropyl-2-{[(5-methoxypyridin-3-yl)amino]sulfonyl}-N-[(1-methyl-1H-imidazol-2-yl)methyl]benzamide] | 421 | 157 | 107 |
| COc1cncc(NS(=O)(=O)c2ccccc2C(=O)N(CCO)C(C)C)c1 [Example 98, N-(2-hydroxyethyl)-N-isopropyl-2-{[(5-methoxypyridin-3-yl)amino]sulfonyl}benzamide] | 506 | 196 | 51 |
| COc1cncc(NS(=O)(=O)c2ccccc2C(=O)N(CC(C)O)C(C)C)c1 (stereo not drawn) [Example 99, N-(2-hydroxypropyl)-N-isopropyl-2-{[(5-methoxypyridin-3-yl)amino]sulfonyl}benzamide] | 406 | 223 | 90 |
| CC[C@@H](C)NC(=O)c1ccccc1S(=O)(=O)Nc1cncc(OC)c1 [Example 101, 2-{[(5-methoxypyridin-3-yl)amino]sulfonyl}-N-[(1R) -1-methylpropyl]benzamide] | 244 | 54.8 | 26 |
| CC[C@H](C)NC(=O)c1ccccc1S(=O)(=O)Nc1cncc(OC)c1 [Example 102, 2-{[(5-methoxypyridin-3-yl)amino]sulfonyl}-N-[(1S) -1-methylpropyl]benzamide] | 375 | 56 | 55 |
| CCOc1ccncc1NS(=O)(=O)c1ccccc1C(=O)N(C)Cc1cccc(F)c1 [Example 103, 2-{[(4-ethoxypyridin-3-yl)amino]sulfonyl}-N-(3-fluorobenzyl)-N-methylbenzamide] | 129 | 26 | 21 |
| COc1ccncc1NS(=O)(=O)c1ccccc1C(=O)N(C)Cc1cccc(F)c1 [Example 104, N-(3-fluorobenzyl)-2-{[(4-methoxypyridin-3-yl)amino]sulfonyl}-N-methylbenzamide] | 141 | 23.5 | 35 |
| CCC(C)(C)NC(=O)c1ccccc1S(=O)(=O)Nc1cnccc1OC [Example 106, N-(1,1-dimethylpropyl)-2-{[(4-methoxypyridin-3-yl)amino]sulfonyl}benzamide] | 345 | 87.5 | 51 |
| CCOc1ccncc1NS(=O)(=O)c1ccccc1C(=O)N[C@@H](C)C(C)C [Example 107, N-[(1S)-12-dimethylpropyl]-2-{[(4-ethoxypyridin-3-yl)amino]sulfonyl}benzamide] | 214 | 44 | 57 |
| COc1ccncc1NS(=O)(=O)c1ccccc1C(=O)N[C@@H](C)C(C)C [Example 108] | 506 | 115 | 98 |
| CCN(C(=O)c1ccccc1S(=O)(=O)Nc1cncc(OC)c1)C(C)C [Example 109, N-ethyl-N-isopropyl-2-{[(5-methoxypyridin-3-yl)amino]sulfonyl}benzamide] | 213 | 37.2 | 35 |
| CCOc1ccncc1NS(=O)(=O)c1ccccc1C(=O)N[C@H](C)C(C)C [Example 110, N-[(1R)-12-dimethylpropyl]-2-{[(4-ethoxypyridin-3-yl)amino]sulfonyl}benzamide] | 156 | 50.4 | 26 |
| COc1ccncc1NS(=O)(=O)c1ccccc1C(=O)N[C@H](C)C(C)C [Example 112, N-[(1R)-12-dimethylpropyl]-2-{[(4-methoxypyridin-3-yl)amino]sulfonyl}benzamide] | 438 | 119 | 46 |
| CCC(C)NC(=O)c1ccccc1S(=O)(=O)Nc1cncc(N)c1 (stereo not drawn) [Example 113, 2-{[(5-aminopyridin-3-yl)amino]sulfonyl}-N-(sec-butyl)benzamide] | 698 | 97.5 | 90 |
| COCCN(C(=O)c1ccccc1S(=O)(=O)Nc1cncc(N)c1)C(C)C [Example 114, 2-{[(5-aminopyridin-3-yl)amino]sulfonyl}-N-isopropyl-N-(2-methoxyethyl)benzamide] | 466 | 105 | 134 |
| CCC(C)CNC(=O)c1ccccc1S(=O)(=O)Nc1cnccc1OC (stereo not drawn) [Example 116, 2-{[(4-methoxypyridin-3-yl)amino]sulfonyl}-N-(2-methylbutyl)benzamide] | 317 | 50.9 | 33 |
| O=C(NCc1ccc(F)c(F)c1)c1ccccc1S(=O)(=O)Nc1cncc(OCc2ccccc2)c1 [Example 393, 2-({[5-(benzyloxy)pyridin-3-yl]amino}sulfonyl)-N-(3,4-diflorobenzyl)benzamide] | – | – | 8 |

Further lines, results first:

| Ki [1, 3] [nM] | Ki [1, 4] [nM] | IC50 [2] [nM] | SMILES |
| --- | --- | --- | --- |
| 58 | 17.2 | 18 | Cc1cncc(NS(=O)(=O)c2ccccc2C(=O)NCc2ccc(C#N)cc2Cl)c1 [Example 91, N-(2-chloro-4-cyanobenzyl)-2-{[(5-methylpyridin-3-yl)amino]sulfonyl}benzamide] |
| 45.7 | 17.5 | 22 | Cc1cncc(NS(=O)(=O)c2ccccc2C(=O)NC(C(C)C)C(C)C)c1 [Example 92, N-(1-isopropyl-2-methylpropyl)-2-{[(5-methylpyridin-3-yl)amino]sulfonyl}benzamide] |
| 78 | 25.4 | 8 | Cc1cncc(NS(=O)(=O)c2ccccc2C(=O)NC(C)CC(C)C)c1 (stereo not drawn) [Example 95, N-(1,3-dimethylbutyl)-2-{[(5-methylpyridin-3-yl)amino]sulfonyl}benzamide] |
| 124 | 22.3 | 9 | CC[C@H](C)CNC(=O)c1ccccc1S(=O)(=O)Nc1cncc(OC)c1 [Example 96, 2-{[(5-methoxypyridin-3-yl)amino]sulfonyl}-N-[(2S)-2-methylbutyl]benzamide] |
| 88.3 | 35.7 | 14 | CCCN(C(=O)c1ccccc1S(=O)(=O)Nc1cncc(OC)c1)C(C)C [Example 100, N-isopropyl-2-{[(5-methoxypyridin-3-yl)amino]sulfonyl}-N-propylbenzamide] |
| 83.1 | 28.6 | 21 | CCOc1ccncc1NS(=O)(=O)c1ccccc1C(=O)NC(C)(C)CC [Example 105, N-(1,1-dimethylpropyl)-2-{[(4-ethoxypyridin-3-yl)amino]sulfonyl}benzamide] |
| 27.3 | 6.8 | 10 | COc1cncc(NS(=O)(=O)c2ccc(OC)cc2C(=O)NCc2ccc(F)cc2)c1 [Example 111, N-(4-fluorobenzyl)-5-methoxy-2-{[(5-methoxypyridin-3-yl)amino]sulfonyl}benzamide] |
| 124 | 26 | 23 | CCOc1ccncc1NS(=O)(=O)c1ccccc1C(=O)NCC(C)CC (stereo not drawn) [Example 115, 2-{[(4-ethoxypyridin-3-yl)amino]sulfonyl}-N-(2-methylbutyl)benzamide] |
| 86.4 | 19.8 | – | CN(c1cccnc1)S(=O)(=O)c1ccccc1C(=O)NCc1ccc(F)c(F)c1 [Example 327, N-(3,4-difluorobenzyl)-2-{[methyl(pyridin-3-yl)amino]sulfonyl}benzamide] |
